Data taken from patent US8993568B2, “Morpholinyl derivatives useful as MOGAT-2 inhibitors” (Eli Lilly and Company, priority 2012, dated 2015).
Blank lines part the entries; values can stand above or below the molecule they belong to.

Tests used:
TAG absorption = experiment: Dog Oil Bolus Model (plasma triglyceride after olive oil); assay type: in vivo, dog (male beagles)
Method: Pharmacological Effects in a Dog Oil Bolus Model
Inhibiting MOGAT-2 found in the small intestine may be useful for treating hypertriglyceridemia caused by excessive fat intake. To assess the ability of the exemplified compounds to inhibit TAG absorption, twenty one male beagles (n=7 per treatment group) are enrolled for each study, each dog selected to have a body weight between 9-13 kg. House the dogs in cages with a standard light cycle (12 hours light and 12 hours dark); at room temperature: 72±8° F.; and at 30%-70% relative humidity. Fast the dogs for 16 hours prior to the start of the study, then dose the fasted dogs with vehicle (1% HEC, 0.25%, Tween 80, Antifoam) or one of the test compounds in that vehicle. Bleed the dogs one hour after dosing, (0.5 ml from the jugular vein) for a time 0 sample. Dose the dogs with olive oil (Sigma Catalog#: O-1514, 5 ml/kg) immediately after collection of the time 0 sample. Collect samples into an EDTA tube on ice at 1.5, 2, 3, 5, 7, and 9 hrs post compound/vehicle dosing. Centrifuge the samples at […] for 15 min and analyze (Roche Cat no. 1877771) for plasma total triglyceride using a Roche Hitachi 917. For plasma TAG 18.1—18.1—18.1 measurement, extract the samples and perform LC/MS/MS analysis similarly to that described above in MOGAT-2 Cell Assay using 10 μL of plasma/.
The analyte is the [M+NH4]+ ion of TAG 18:1 18:1 18:1, which has a mass of 902.8 m/z; the internal standard is D5 TAG 16:0 16:0 16:0, which has a mass of 829.8 m/z. Report the ratio of the 603.5 m/z daughter ion of 902.8 m/z (TAG 18:1 18:1 18:1) and the 556.5 m/z daughter ion of 829.8 m/z (D5 TAG 16:0 16:0 16:0 internal standard) changes in TAG 18:1 18:1 18:1 relative amount. Calculate the net plasma TAG AUC from total TAG AUC minus baseline TAG AUC using Graphpad Prism4: (Net AUCTAG=AUCTAG post oil bolus−AUCTAG at 0 hour). The percent inhibition of plasma triglyceride is calculated as follows: the (oil bolus group mean of net TAG AUC−oil bolus group mean of net TAG AUC with compound treatment/oil bolus group mean of net TAG AUC)*100. The final statistic analysis uses Dunnett's method of One way Anova for comparison with the control. All Net TAG AUC values are transformed to ranked averaged AUC for comparison to limit the variability within the studies. The ability of exemplified compounds of the present invention to inhibit MOGAT-2 activity and reduce TAG absorption in vivo can be further evaluated according to this assay.

human MOGAT-2 = human MOGAT-2 (Homo sapiens (Human), UniProt Q3SYC2); experiment: MOGAT-2 Cell Assay (Caco-2 cells stably transfected with human MOGAT-2, HDG substrate, LC-MS); assay type: cell-based; conditions: Caco-2 cells expressing human MOGAT-2; value (Std Dev., n)
Method: Inhibitory Activity in MOGAT-2 Cell Assay
The inhibitory activity of compounds against human MOGAT-2 in a cell environment is evaluated in this assay. […] The substrate is delivered to cells using as a mixture with DOPC in the form of sonicated vesicles.
Seed the Caco2 cells onto 100 mm dishes to be 80% confluent after 24 hours in complete media (3/1 DMEM: F12+10% FBS+20 mM HEPES+gentamicin). Transfect the cells with hMOGAT-2 plasmid (MOGAT-2-pCDNA3.1-Hygro) using Lipofectamine 2000 (Invitrogen). After a 6 hour exposure to the transfection mixture, wash the cells three times in PBS and then add media. Incubate the cells for an additional 18 hours incubation, trypsinize the cells and serially dilute them into 100 mm dishes. Add complete media+400 μg/ml hygromycin and incubate until clones appear. Isolate and transfer the clones into 24 well dishes and grow to confluence. Prepare the RNAs from these clones using a Qiagen RNAeasy kit. Perform Taqman analysis using an ABI inventoried assay (HS00228262) on a 7900 Sequence Detection System (ABI).
Mix 2-O-hexadecylglycerol (“HDG”, Biosynth Chemistry & Biology, # H-1806, 562.7 μl of 20 mg/ml) and DOPC (14.3 ml of 20 mg/ml) in chloroform in a glass tube; dry first under N2 gas; and then under reduced pressure for additional 30 minutes. Add 20 ml of buffer (150 mM Tris-Cl pH 7.4, 250 mM sucrose, 1 mM EDTA) to the dried HDG/DOPC mixture while sonicating until the solution becomes clear. Plate the Caco2 cells into a poly-D-lysine coated 96-well plate (the “Cell Plate”) at 37° C., 5% CO2 overnight. Remove the growth media and pretreat the cells with the test compound in DMEMF12 (3:1) media (GIBCO 93-0152DK) containing 2% BSA (Sigma) for 30 minutes. Treat the cells with one test compound in 2% BSA DMEMF12 (3:1) media containing 40 μM of oleic acid and 800 μM of 8.9:91.9 (molar ratio) HDG/DOPC for 4 hours. Trypsinize the cells with 50 μl of trypsin solution and add 50 μl of PBS. Immediately freeze the cells on dry ice and store at −20° C. for LC-MS analysis. […]

[1] = 30 mg/kg PO, combined three studies
[2] = 75 mg/kg PO, combined two studies

Sequence of human MOGAT-2 (Q3SYC2 whole entry): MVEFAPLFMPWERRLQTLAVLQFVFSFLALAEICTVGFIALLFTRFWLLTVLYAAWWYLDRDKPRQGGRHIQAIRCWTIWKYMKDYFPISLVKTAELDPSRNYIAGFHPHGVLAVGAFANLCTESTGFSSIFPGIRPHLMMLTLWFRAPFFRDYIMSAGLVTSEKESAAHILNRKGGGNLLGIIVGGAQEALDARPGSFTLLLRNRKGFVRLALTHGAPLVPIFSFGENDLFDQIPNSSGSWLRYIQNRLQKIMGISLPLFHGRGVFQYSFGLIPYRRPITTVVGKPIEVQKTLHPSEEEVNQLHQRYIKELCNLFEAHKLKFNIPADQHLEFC

Compound: C[C@@H](NS(C)(=O)=O)c1ccc(CN2CCO[C@@H](c3ccc(F)cc3)C2)cc1.O=C(O)/C=C\C(=O)O [Example 2, N-[(1R)-1-(4-{[(2S)-2-(4-Fluorophenyl)morpholin-4-yl]methyl}phenyl)ethyl]methanesulfonamide maleate]
inhibition of 18.1 TAG (plasma TAG 18:1 18:1 18:1) (TAG absorption; [1]): 45%
inhibition of TAG absorption (net plasma total TAG AUC) (TAG absorption; [1]): 43%
reduction in excursion of postprandial triglycerides (TAG absorption; 30 mg/kg and 75 mg/kg, combined studies, p<0.05): statistically significant (p<0.05) reduction
inhibition of 18.1 TAG (plasma TAG 18:1 18:1 18:1) (TAG absorption; [2]): 63%
inhibition of TAG absorption (net plasma total TAG AUC) (TAG absorption; [2]): 64%

IC50 (human MOGAT-2): 98 nM
Compound: C[C@@H](NS(C)(=O)=O)c1ccc(CN2CCOC(c3cccc(C(F)(F)F)c3)C2)cc1 (single isomer, unassigned; isomer 2) [Example 11]

IC50 (human MOGAT-2): 40 nM
Compound: CS(=O)(=O)N[C@@H](c1ccc(CN2CCOC(c3ccc(F)cc3)C2)cc1)C(F)(F)F (single isomer, unassigned; isomer 1) [Example 14]

IC50 (human MOGAT-2): 16 nM
Compound: CS(=O)(=O)N[C@@H](c1ccc(CN2CCOC(c3ccccc3Cl)C2)cc1)C(F)(F)F (single isomer, unassigned; isomer 2) [Example 5]
